Activity calls are given as the source filed them. The rule behind the calls is not given here.

We go through three molecules from ChEMBL document CHEMBL1152022, “Double-headed molecules based on linear or angular psoralen and -methylene--butyrolactone: a search for non-phototoxic potential antiproliferative compounds” (Bioorg Med Chem Lett, 1993).

Assay type in all cases: functional, organism-based
Test [1] is filed under the species Mus musculus. The experiment in a line: Phototoxicity was evaluated at a concentration of 27.7 mM at a UVA dose of 12 J/cm**2 in mouse ear-swelling test; non-phototoxic.
Test [2] is filed under the species Mus musculus. The experiment in a line: Phototoxicity was evaluated at a concentration of 1.4 mM and with an irradiation dose of 6 J/cm**2 in mouse ear-swelling test; non-phototoxic.
The species entered for test [3] is Mus musculus. The experiment in a line: Phototoxicity was evaluated at a concentration of 13.9 mM and a UVA dose of 10 J/cm**2 in mouse ear-swelling test; non-phototoxic.
For test [4], the species on record is Mus musculus. The experiment in a line: Phototoxicity was evaluated at a concentration of 1.4 mM and with an irradiation dose of 6 J/cm**2 in mouse ear-swelling test; induced marked erythema.

For the molecule `C=C1CC(CCCCCCCCCCOc2c3ccoc3cc3oc(=O)ccc23)OC1=O` (centres undefined), the Phototoxicity entry in test [1] and in test [2] was “Not toxic” throughout.
Consider `C=C1CC(CCCCCCCCCCc2cc3c(ccc4ccc(=O)oc43)o2)OC1=O` (centres undefined), for which the Phototoxicity result in test [3] is “Not toxic”.
Regarding `COc1c2ccoc2cc2oc(=O)ccc12`, the Phototoxicity result in test [4] is “Active”.
